In ChEMBL document CHEMBL1201862, “PubChem BioAssay data set” (2004):
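These data come from cells grown in 96-well plates and exposed to compound for 48 hours at five concentrations. At the GI50, growth is halved.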 Calls of active or inactive are those of the source. Rule as the data show it: active = GI50 up to about 1.1 µM and inactive = higher.

Tests used:
Assay in all cases: DTP human tumour cell line panel, 48 h
786-0 = tested on: 786-0
A549 = tested on: A549
BT-549 = tested on: BT-549
CAKI-1 = tested on: CAKI-1
CCRF-CEM = tested on: CCRF-CEM
COLO 205 = tested on: COLO 205
EKVX = tested on: EKVX
HCC 2998 = tested on: HCC 2998
HOP-62 = tested on: HOP-62
IGROV-1 = tested on: IGROV-1
M14 = tested on: M14
MCF7 = tested on: MCF7
MDA-MB-435 = tested on: MDA-MB-435
Malme-3M = tested on: Malme-3M
NCI-H23 = tested on: NCI-H23
NCI-H522 = tested on: NCI-H522
OVCAR-5 = tested on: OVCAR-5
SF-295 = tested on: SF-295
SK-MEL-5 = tested on: SK-MEL-5
UO-31 = tested on: UO-31

Structure (SMILES) | GI50 (786-0) | GI50 (A549) | GI50 (BT-549) | GI50 (CAKI-1) | GI50 (CCRF-CEM) | GI50 (COLO 205) | GI50 (EKVX) | GI50 (HCC 2998) | GI50 (HOP-62) | GI50 (IGROV-1) | GI50 (M14) | GI50 (MCF7) | GI50 (MDA-MB-435) | GI50 (Malme-3M) | GI50 (NCI-H23) | GI50 (NCI-H522) | GI50 (OVCAR-5) | GI50 (SF-295) | GI50 (SK-MEL-5) | GI50 (UO-31)
COc1ccc2c(C)cc(N/N=C(\C)C=O)nc2c1 | 11600 nM (inactive) | 18500 nM (inactive) | 15100 nM (inactive) | 14400 nM (inactive) | 1820 nM (inactive) | 13800 nM (inactive) | 16600 nM (inactive) | 11900 nM (inactive) | 8790 nM (inactive) | 16500 nM (inactive) | 13600 nM (inactive) | 8790 nM (inactive) | 10800 nM (inactive) | 12000 nM (inactive) | 11800 nM (inactive) | 12600 nM (inactive) | 13000 nM (inactive) | 10000 nM (inactive) | 12700 nM (inactive) | 13200 nM (inactive)
CCC(=C/[C@H](C)C/C=C/C(C)=C/[C@@H](C)C(=O)[C@@H](C)[C@H](O)[C@@H](C)CC)/C=C/[C@H]1CC=CC(=O)O1 [CALLYSTATIN A] | < 1.2 nM (active) | < 1.2 nM (active) | < 1.2 nM (active) | < 1.2 nM (active) | < 1.2 nM (active) | < 1.2 nM (active) | < 1.2 nM (active) | < 1.2 nM (active) | < 1.2 nM (active) | < 1.2 nM (active) | < 1.2 nM (active) | < 1.2 nM (active) | < 1.2 nM (active) | < 1.2 nM (active) | < 1.2 nM (active) | < 1.2 nM (active) | < 1.2 nM (active) | < 1.2 nM (active) | < 1.2 nM (active) | < 1.2 nM (active)
